Laboratory results reported in patent US11426422B2, “SHP2 inhibitors and methods of use thereof” (Research Development Foundation, priority 2018, dated 2022).
Where no end group is shown, it is not given here. [ ]: non-standard residue; d: D form. pY = N[C@@H](Cc1ccc(OP(=O)(O)O)cc1)C(=O)O

How the values were obtained:
[1] = test system: HepG2 cells expressing IR-GFP WT; test: insulin-activated IR endocytosis in HepG2 cells expressing IR-GFP WT (immunofluorescence, PM/IC ratio); type: cell-based; conditions: serum starved 14 h, inhibitor 2 h, then 100 nM insulin 20 min; BMS536924 2 μM, U0126 40 μM, SHP099 40 μM, AKT inhibitor VIII 5 μM, BI2536 200 nM, Reversine 1 μM
Method: (FIG. 2A) HepG2 cells expressing IR-GFP WT were starved, treated with the indicated inhibitors for 2 h, treated without or with 100 nM insulin for 20 min, and stained with anti-GFP (IR; green) and DAPI (blue). […] Quantification of the ratios of PM and IC IR-GFP signals of cells was shown (mean±SD; *p<0.0001).
To test whether the MAPK pathway and SHP2 might regulate the IRS1/2-AP2 interaction and IR endocytosis through modulating IRS1/2 phosphorylation patterns, the effects of inhibiting SHP2 or the MAPK pathway on insulin-activated IR endocytosis were examined (FIG. 2A and FIG. 7A).
For testing the effects of kinase inhibitors on IR endocytosis, the cells were serum starved for 14 h and inhibitors were added at 2 h before insulin treatment.

[2] = test system: HepG2 cells expressing IR-GFP mutants; test: cellular localization of IR-GFP mutants in HepG2 cells after inhibitors; type: cell-based; conditions: starved 14 h, inhibitors 4 h, no insulin; for PM levels of Class II IR mutants: R1020Q, V1054M, A1075D, V1086E, I1143T
Text: FIGS. 4A-E. Dysregulation of IR endocytosis as a potential contributing factor to human insulin resistance syndromes. (FIG. 4A) Representative images of liver specimens from human non-diabetes and diabetes patients stained with DAPI (blue) and anti-IR (red) and anti-ZO-1 (green) antibodies. Scale bars, 40 μm. (FIG. 4B) Quantification of the percentage of cells with positive IR PM signals in liver specimens in FIG. 4A (mean±SD; *p<0.0001). (FIG. 4C) HepG2 cells stably expressing IR-GFP R1020Q, V1054M, A1075D, V1086E, or I1143T were serum starved and stained with anti-GFP and anti-RAB7 antibodies. Scale bar, 5 μm. (FIG. 4D) Quantification of the ratios of PM and IC IR-GFP signals of cells in FIG. 4C (mean±SD; *p<0.0001). (FIG. 4E) Targeting feedback regulation of IR endocytosis for diabetes treatment. Left panel depicts the feedback regulation of IR endocytosis by ERK1/2 and SHP2 during unperturbed insulin signaling.
FIGS. 9A-D. Characterization of IR mutations found in human patients. (FIG. 9A) HepG2 cells expressing IR-GFP Class I mutants (P997T, V1012M, A1055V, K1095E, R1119Q, H1157R, R1191Q, Y1361C, or R1378Q) were starved for 14 h, treated with the indicated inhibitors for 4 h, and stained with anti-GFP (IR; green) and DAPI (blue). Scale bar, 5 m. (FIG. 9B) HepG2 cells expressing IR-GFP Class II mutants (R1020Q, V1054M, A1075D, V1086E, or I1143T) were analyzed as described in FIG. 9A. (FIG. 9C) HepG2 cells expressing IR-GFP Class III mutants (A1162E or W1220L) were analyzed as described in A. (FIG. 9D) HepG2 cells expressing IR-GFP WT, R1020Q, or V1054M were serum starved for 14 h and treated with DMSO or 80 μM Dynasore for 4 h. Cell lysates were blotted with the indicated antibodies.
Mutations of IR are known to cause inherited severe insulin resistance syndromes, but the mechanisms by which these mutations affect IR function have not been systematically explored. HepG2 cell lines were generated which stably expressed IR mutants fused to GFP, and the subcellular localization of these IR-GFP proteins was examined (FIGS. 9A-C and Table 1).
There were three distinct classes of IR mutants based on their subcellular localization in the unstimulated state. Class I mutants localized to the PM. […] Thus, certain IR mutations found in human insulin resistance syndromes perturbs IR kinase regulation and causes premature IR endocytosis.
Cellular localization of IR mutants was examined after inhibiting the SHP2 or MAPK pathways (FIGS. 4C-D, and FIGS. 9A-C).
Indirect immunofluorescence microscopy was performed on cells grown on coverslips and fixed in cold methanol at −20° C. for 10 min. The fixed cells were incubated with PBS for 30 min and 3% BSA in 0.1% PBST for 1 h, and then treated with diluted antibodies in 0.3% BSA in 0.1% PBST at 4° C. overnight. After being washed, cells were incubated with fluorescent secondary antibodies and mounted on microscope slides in ProLong Gold Antifade reagent with DAPI (Invitrogen). Images of fixed cells were acquired as a series of 0.4 m stacks with a DeltaVision® system (Applied Precision®, Issaquah, Wash.). Raw images were deconvolved using the iterative algorithm implemented in the softWoRx® software (Applied Precision®, Issaquash, Wash.). The central section of a 0.4 μm z-stack containing 3 contiguous focal planes was used for quantification. The cell edges were defined with Image J. The whole cell signal intensity (WC) and intracellular signal intensity (IC) were measured. The plasma membrane signal intensity (PM) was calculated by subtracting IC from WC. Identical exposure times and magnifications were used for all comparative analyses.

[3] = biological target: T1, AP2M1 (residues 160-435) (Homo sapiens, UniProt Q96CW1); test: in vitro peptide pull-down of AP2M1 with IRS1 peptides; type: binding; conditions: peptide beads pull-down, SDS-PAGE, Coomassie
T1 construct: The AP2M1 fragment (residues 160-435) was cloned into a modified pET28a; His6 (N, cleaved yes); made in house; host or cells: E. coli BL21(DE3)
T1 sequence (Q96CW1 160-435): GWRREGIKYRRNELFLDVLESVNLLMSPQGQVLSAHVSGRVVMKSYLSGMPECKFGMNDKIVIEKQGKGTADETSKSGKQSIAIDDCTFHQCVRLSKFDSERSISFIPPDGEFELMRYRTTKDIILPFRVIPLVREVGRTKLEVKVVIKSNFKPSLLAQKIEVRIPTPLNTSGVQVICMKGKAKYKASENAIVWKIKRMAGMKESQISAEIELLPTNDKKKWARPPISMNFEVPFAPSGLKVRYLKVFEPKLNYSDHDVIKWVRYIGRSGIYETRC
Method: FIGS. 2A-I. The MAPK pathway and SHP2 promote insulin-activated IR endocytosis. (FIG. 2A) HepG2 cells expressing IR-GFP WT were starved, treated with the indicated inhibitors for 2 h, treated without or with 100 nM insulin for 20 min, and stained with anti-GFP (IR; green) and DAPI (blue). See also FIG. 7A for representative images. Quantification of the ratios of PM and IC IR-GFP signals of cells was shown (mean±SD; *p<0.0001). (FIG. 2B) Binding of IRS1 peptides to AP2M1 (residues 160-435). Input and proteins bound to IRS1-peptide beads were analyzed by SDS-PAGE and stained with Coomassie (CBB). The relative band intensities are shown below (mean±SD; n=4 independent experiments). (FIG. 2C) ITC analysis of binding between IRS1 peptides and AP2M1 (residue 160-435), with the Kd indicated. (FIG. 2D) The IRS1 peptides were incubated with active SHP2 for the indicated durations, spotted onto membranes, and detected with the anti-pY612-IRS1 antibody. (FIG. 2E) Quantification of the relative SHP2 activity in FIG. 2D (mean±SD; n=4 independent experiments; *p<0.0001). (FIG. 2F) Model of the regulation of insulin-activated IR endocytosis by a phosphorylation switch on IRS1/2. Insulin-bound IR phosphorylates itself and IRS1/2, and activates the PI3K-AKT and MAPK pathways. SHP2 acts upstream of RAS-RAF and promotes the activation of MAPK pathway. p31^comet binds to the IR-bound MAD2 and blocks IR-AP2 association to prevent premature IR endocytosis. In feedback regulation, activated ERK1/2 phosphorylate S616 and other sites on IRS1. […]
(§1) For GST pull-down assays of in vitro translated (IVT) IRS1 proteins, beads bound to GST-AP2M1 or GST were incubated with IVT products diluted in the cell lysis buffer at 4° C. for 2 h. After incubation and washing, proteins bound to beads were eluted with the SDS loading buffer, resolved with SDS-PAGE, and detected with Coomassie staining or immunoblotting with the appropriate antibodies. […]

[4] = biological target: T1, AP2M1 (residues 160-435); test: isothermal titration calorimetry (ITC) of IRS1 peptides with AP2M1; type: binding; conditions: 20° C., HEPES buffer pH 7.5
Text: The unphosphorylated and phosphorylated IRS1 peptides containing 612YMPMS (SEQ ID NO:7) FIG. 7B) were chemically synthesized and used for in vitro pull-down assays to examine their binding to AP2M1 (FIG. 2B). […] Thus, phosphorylation of IRS1 by ERK1/2 enhances IRS1 binding to AP2M1.
The AP2M1 fragment (residues 160-435) was cloned into a modified pET28a that introduced an N-terminal His6-tag followed by a thrombin cleavage site. The plasmid was transformed into BL21(DE3) E. coli cells. Protein expression was induced by 0.2 mM IPTG at 20° C. overnight. The harvested pellets were lysed in the lysis buffer II (20 mM Tris-HCl, pH 7.5, 500 mM NaCl, 20 mM Imidazole, 1 mM PMSF). After sonication, lysates were cleared by centrifugation at 4° C. The supernatants were filtered by […] filter and incubated with pre-equilibrated Ni2+-NTA beads (Qiagen®). […]
as §1

**Q.** For `O=c1[nH]c2ccccc2n1C1CCN(Cc2ccc(-c3nc4cc5[nH]cnc5cc4nc3-c3ccccc3)cc2)CC1` [AKTi, VIII], which “insulin-activated IR endocytosis (ratio of PM and IC IR-GFP signals)” value [1] is on record?
**A.** Its value is “did not affect IR endocytosis”.

**Q.** For `Cc1cc(N2CCOCC2)cc2[nH]c(-c3c(NC[C@@H](O)c4cccc(Cl)c4)cc[nH]c3=O)nc12` [BMS536924], which “PM levels of Class II IR mutants” value [2] is on record?
**A.** Its value is “restored Class II IR mutants at the PM”.

**Q.** And the “insulin-activated IR endocytosis (ratio of PM and IC IR-GFP signals)” value [1]?
**A.** The value was “blocked IR endocytosis”.

**Q.** Which results are given for `N#CC(=C(/N)Sc1ccccc1N)/C(C#N)=C(\N)Sc1ccccc1N` [Compound U0126]?
**A.** PM levels of Class I and III IR mutants [2]: not those of Class I and III IR mutants; PM levels of Class II IR mutants [2]: significantly enhanced the PM levels of Class II IR mutants; insulin-activated IR endocytosis (ratio of PM and IC IR-GFP signals) [1]: blocked IR endocytosis

**Q.** With `c1nc2nc(Nc3ccc(N4CCOCC4)cc3)nc(NC3CCCCC3)c2[nH]1` [Reversine] as the compound, how does the “insulin-activated IR endocytosis (ratio of PM and IC IR-GFP signals)” value [1] read?
**A.** Its value is “did not appreciably inhibit IR endocytosis”.

**Q.** Which “PM levels of Class II IR mutants” value [2] does the source give for `O=C(N/N=C/c1ccc(O)c(O)c1)c1cc2ccccc2cc1O` [dynasore] here?
**A.** Its value is “elevated the IR signal of Class II mutants at the PM”.

**Q.** Which “binding to AP2M1” value [3] does the source give for “AMPAS: mutant IRS1 peptide CHTDDGAMPASPGVA (SEQ ID NO:10), Y612 and M615 replaced by alanine” here?
**A.** Its value is “did not”.

**Q.** Which Kd [4] does the source give for CHTDDGYMPMSPGVA [YMPMS] here?
**A.** Its Kd is 2030 nM.

**Q.** With “pYMPMS: singly phosphorylated IRS1 peptide CHTDDGpYMPMSPGVA (SEQ ID NO:12) (CHTDDG[pY]MPMSPGVA)” as the compound, how does the “binding to AP2M1” value [3] read?
**A.** The value was “abolished AP2M1 binding”.
